Data on 1 cell line can be found in the supplement of paper PMC10307832.

Holding throughout (assay): relative viability (nuclei count vs DMSO), 5 days (fraction); higher = more cells survive
Compound in test [1]: CN[C@@H]1C[C@H]2O[C@@](C)([C@@H]1OC)n1c3ccccc3c3c4c(c5c6ccccc6n2c5c31)C(=O)NC4 [Staurosporine] + CC(=O)Nc1cccc(-n2c(=O)n(C3CC3)c(=O)c3c(Nc4ccc(I)cc4F)n(C)c(=O)c(C)c32)c1 [Trametinib] (partner 0.02 µM)
Summed up:
(§1)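 Medians of duplicate plates are given as relative viability. That measure is the nuclei count in treated wells divided by the count in vehicle wells. Counts were taken on 4× images of lung cancer cell lines in 1536-well plates, 5 days after pin-tool dosing the day after seeding with one drug alone or a fixed anchor-drug dose plus five library-drug doses (not always all listed) in √10 steps.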

Compound in the test “Sulindac + Lapatinib”: CC1=C(CC(=O)O)c2cc(F)ccc2/C1=C\c1ccc([S+](C)[O-])cc1 [Sulindac] + CS(=O)(=O)CCNCc1ccc(-c2ccc3ncnc(Nc4ccc(OCc5cccc(F)c5)c(Cl)c4)c3c2)o1 [Lapatinib] (partner 2 µM)
Summed up: as §1

Compound in test [2]: O=c1[nH]cc(F)c(=O)[nH]1 [5-Fluorouracil] + Cc1cc(Nc2cc(N3CCN(C)CC3)nc(Sc3ccc(NC(=O)C4CC4)cc3)n2)n[nH]1 [Tozasertib] (partner 0.1 µM)
Summed up: as §1

Compound in the test “Sulindac + Pemetrexed”: CC1=C(CC(=O)O)c2cc(F)ccc2/C1=C\c1ccc([S+](C)[O-])cc1 [Sulindac] + Nc1nc2[nH]cc(CCc3ccc(C(=O)N[C@@H](CCC(=O)O)C(=O)O)cc3)c2c(=O)[nH]1 [Pemetrexed] (partner 0.2 µM)
Summed up:
as §1

Take UMC-11: the relative viability stood at 0.444 in test [1] (first compound 0.005 µM); 0.0989 in test [1] (first compound 0.01581 µM); 0.212 in test [1] (first compound 0.05 µM); 0.121 in test [1] (first compound 0.1581 µM); 0.0798 in test [1] (first compound 0.5 µM); 1.16 with Sulindac + Lapatinib (first compound 0.08 µM). The relative viability with Sulindac + Lapatinib (first compound 0.253 µM) worked out at 1.12; in the test with Sulindac + Lapatinib (first compound 0.8 µM), 0.758; with Sulindac + Lapatinib (first compound 2.53 µM), 0.946; in the test with Sulindac + Lapatinib (first compound 8 µM) it was 1.15; in test [2] (first compound 0.02 µM), 0.183; in test [2] (first compound 0.2 µM), 0.188. Moreover, the relative viability in test [2] (first compound 0.6325 µM) came to 0.203; in test [2] (first compound 2 µM), 0.188; with Sulindac + Pemetrexed (first compound 0.08 µM), 0.853; with Sulindac + Pemetrexed (first compound 0.253 µM), 0.808; with Sulindac + Pemetrexed (first compound 0.8 µM), 0.582; with Sulindac + Pemetrexed (first compound 2.53 µM), 0.747. Further, the relative viability in the test with Sulindac + Pemetrexed (first compound 8 µM) is 0.868.
